Reference: PMC9222373 (2022)

System: Apt-5 (unlabelled) (DNA, aptamer) AGCAGCACAGAGGTCAGATGGGATGTGAGGTGGCTCTCGTATCTATAGATTTTGGCGAGACCTATGCGTGCTACCGTGAA
Test: AuNP aggregation colorimetry
Details: NaCl added after incubation (75 mM optimised); 37 °C, 1 h; 10 ng/mL toxin; 200 nM aptamer stock; insignificant colour change

| SMILES | binding |
| --- | --- |
| CCCC[C@@H](C)[C@@H](OC(=O)C[C@@H](CC(=O)O)C(=O)O)[C@H](C[C@@H](C)C[C@H](O)CCCC[C@@H](O)C[C@H](O)[C@H](C)N)OC(=O)C[C@@H](CC(=O)O)C(=O)O | no |
| C[C@H]1CCCC(=O)CCC/C=C/c2cc(O)cc(O)c2C(=O)O1 | no |
| C[C@@H]1Cc2c(Cl)cc(C(=O)N[C@@H](Cc3ccccc3)C(=O)O)c(O)c2C(=O)O1 | no |
